In US20240208992A1, “MACROCYCLES AS CFTR MODULATORS” (Idorsia Pharmaceuticals Ltd, priority 2021, published 2024):

Target: human F508del-CFTR (Homo sapiens, UniProt P13569, DEL508-508)
Experiment: F508del-CFTR cell surface expression (corrector activity), DiscoveRx ß-galactosidase complementation chemiluminescence assay in recombinant U2OS cell line;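 note: U2OS cells co-expressing ProLink-tagged F508del-CFTR and a membrane-anchored enzyme acceptor, where more surface CFTR restores β-galactosidase activity measured by chemiluminescence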
Conditions: for EC50: EC50, F508del-CFTR cell surface expression, U2OS cells, 16h compound incubation, geomean values; for Emax: U2OS, in relation to Emax of corrector lumacaftor (=100%), arithmetic mean values

Chain of human F508del-CFTR (P13569 with tags, fused parts or gaps DEL508-508): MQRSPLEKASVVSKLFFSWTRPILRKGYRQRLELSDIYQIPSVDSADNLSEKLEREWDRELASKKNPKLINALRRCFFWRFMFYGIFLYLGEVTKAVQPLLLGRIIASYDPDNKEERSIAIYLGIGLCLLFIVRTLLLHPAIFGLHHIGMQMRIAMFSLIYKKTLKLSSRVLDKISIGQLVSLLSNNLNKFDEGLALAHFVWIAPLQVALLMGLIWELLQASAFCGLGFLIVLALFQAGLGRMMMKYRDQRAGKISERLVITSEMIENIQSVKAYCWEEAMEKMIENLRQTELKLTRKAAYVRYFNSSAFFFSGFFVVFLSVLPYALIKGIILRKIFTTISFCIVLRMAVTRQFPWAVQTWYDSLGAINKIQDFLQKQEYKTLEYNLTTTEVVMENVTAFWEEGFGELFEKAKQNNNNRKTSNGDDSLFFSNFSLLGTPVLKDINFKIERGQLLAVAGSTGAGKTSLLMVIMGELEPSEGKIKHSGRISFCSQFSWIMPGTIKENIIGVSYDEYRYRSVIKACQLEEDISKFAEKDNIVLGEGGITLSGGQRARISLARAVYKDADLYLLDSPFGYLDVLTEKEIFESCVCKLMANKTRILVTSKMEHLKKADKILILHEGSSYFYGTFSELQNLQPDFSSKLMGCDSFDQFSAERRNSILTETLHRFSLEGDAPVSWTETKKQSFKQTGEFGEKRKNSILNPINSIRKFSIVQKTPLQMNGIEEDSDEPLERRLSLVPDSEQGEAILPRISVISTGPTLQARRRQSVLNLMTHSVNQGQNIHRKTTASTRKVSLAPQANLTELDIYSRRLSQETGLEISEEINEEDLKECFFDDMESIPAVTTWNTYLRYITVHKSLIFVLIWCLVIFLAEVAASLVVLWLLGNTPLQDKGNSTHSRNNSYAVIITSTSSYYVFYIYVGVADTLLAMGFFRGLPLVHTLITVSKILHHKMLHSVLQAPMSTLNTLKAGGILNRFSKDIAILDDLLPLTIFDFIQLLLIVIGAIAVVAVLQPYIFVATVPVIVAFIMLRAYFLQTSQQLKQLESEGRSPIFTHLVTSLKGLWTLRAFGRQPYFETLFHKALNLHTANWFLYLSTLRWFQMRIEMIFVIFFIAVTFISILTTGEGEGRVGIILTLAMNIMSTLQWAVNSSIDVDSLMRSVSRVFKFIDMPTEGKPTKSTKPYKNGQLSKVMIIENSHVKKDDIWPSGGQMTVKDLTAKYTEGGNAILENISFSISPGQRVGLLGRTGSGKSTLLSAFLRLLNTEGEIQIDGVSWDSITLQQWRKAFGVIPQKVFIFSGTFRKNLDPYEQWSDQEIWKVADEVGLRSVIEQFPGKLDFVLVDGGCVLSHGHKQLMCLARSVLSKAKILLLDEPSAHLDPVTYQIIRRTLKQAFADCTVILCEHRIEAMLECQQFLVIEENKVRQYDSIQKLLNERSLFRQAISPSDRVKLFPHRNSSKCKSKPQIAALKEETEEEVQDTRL

Row | SMILES | EC50 | Emax
1 | Cc1cc(CCNC(=O)[C@@H]2CC(=O)N(C)[C@@H](CC(C)C)C(=O)N(C)C3(CC3)C(=O)N[C@H](Cc3ccccc3)COc3ccc4ccccc4c3C(=O)N2)on1 [Example 654, (3′S,7′S,13′R)-13′-benzyl-7′-isobutyl-6′,9′-dimethyl-N-(2-(3-methylisoxazol-5-yl)ethyl)-1′,5′,8′,11′-tetraoxo-2′,3′,4′,5′,6′,7′,8′,9′,11′,12′,13′,14′-dodecahydro-1′H-spiro[cyclopropane-1,10′-naphtho[1,2-p][1]oxa[4,7,10,14]tetraazacycloheptadecine]-3′-carboxamide] | 290 nM | 330%
2 | COc1nc(C)cc2c1C(=O)N[C@H](C(=O)NCCc1nc(C3CC3)no1)CC(=O)N(C)[C@@H](CC(C)C)C(=O)N1CCCC[C@@H]1C(=O)N[C@H](Cc1ccccc1)CO2 [Example 656, (7S,11S,17aR,20R)-20-benzyl-N-(2-(3-cyclopropyl-1,2,4-oxadiazol-5-yl)ethyl)-11-isobutyl-4-methoxy-2,10-dimethyl-5,9,12,18-tetraoxo-5,6,7,8,9,10,11,12,15,16,17,17a,18,19,20,21-hexadecahydro-14H-dipyrido[2,1-f:3′,4′-p][1]oxa[4,7,10,14]tetraazacycloheptadecine-7-carboxamide] | 357 nM | 327%
3 | [2H]C([2H])([2H])Oc1nc(C)cc2c1C(=O)N[C@H](C(=O)NCCc1nc(C3CC3)no1)CC(=O)N(C)[C@@H](CC(C)C)C(=O)N1CCCC[C@@H]1C(=O)N[C@H](Cc1ccccc1)CO2 [Example 657, (7S,11S,17aR,20R)-20-benzyl-N-(2-(3-cyclopropyl-1,2,4-oxadiazol-5-yl)ethyl)-11-isobutyl-4-(methoxy-d3)-2,10-dimethyl-5,9,12,18-tetraoxo-5,6,7,8,9,10,11,12,15,16,17,17a,18,19,20,21-hexadecahydro-14H-dipyrido[2,1-f:3′,4′-p][1]oxa[4,7,10,14]tetraazacycloheptadecine-7-carboxamide] | 347 nM | 291%
4 | COc1nc(C)cc2c1C(=O)N[C@H](C(=O)NCCc1cc(C3CC3)no1)CC(=O)N(C)[C@@H](CC(C)C)C(=O)N1CCCC[C@@H]1C(=O)N[C@H](Cc1ccccc1)CO2 [Example 658, (7S,11S,17aR,20R)-20-benzyl-N-(2-(3-cyclopropylisoxazol-5-yl)ethyl)-11-isobutyl-4-methoxy-2,10-dimethyl-5,9,12,18-tetraoxo-5,6,7,8,9,10,11,12,15,16,17,17a,18,19,20,21-hexadecahydro-14H-dipyrido[2,1-f:3′,4′-p][1]oxa[4,7,10,14]tetraazacycloheptadecine-7-carboxamide] | 283 nM | 300%
5 | CC(C)C[C@H]1C(=O)N2CCCC[C@@H]2C(=O)N[C@H](Cc2ccccc2)COc2cnc3ccc(F)cc3c2C(=O)N[C@H](C(=O)NCCc2cnn(C3CC3)n2)CC(=O)N1C [Example 665, (9S,13S,19aR,22R)-22-benzyl-N-(2-(2-cyclopropyl-2H-1,2,3-triazol-4-yl)ethyl)-5-fluoro-13-isobutyl-12-methyl-7,11,14,20-tetraoxo-7,8,9,10,11,12,13,14,17,18,19,19a,20,21,22,23-hexadecahydro-16H-pyrido[2′,1′:6,7][1]oxa[4,7,10,14]tetraazacycloheptadecino[17,16-c]quinoline-9-carboxamide] | 119 nM | 323%
6 | [2H]C([2H])([2H])Oc1nc(C)cc2c1C(=O)N[C@H](C(=O)NCCc1noc(C3CC3)n1)CC(=O)N(C)[C@@H](CC(C)C)C(=O)N1CCCC[C@@H]1C(=O)N[C@H](Cc1ccccc1)CO2 [Example 666, (7S,11S,17aR,20R)-20-benzyl-N-(2-(5-cyclopropyl-1,2,4-oxadiazol-3-yl)ethyl)-11-isobutyl-4-(methoxy-d3)-2,10-dimethyl-5,9,12,18-tetraoxo-5,6,7,8,9,10,11,12,15,16,17,17a,18,19,20,21-hexadecahydro-14H-dipyrido[2,1-f:3′,4′-p][1]oxa[4,7,10,14]tetraazacycloheptadecine-7-carboxamide] | 484 nM | 311%
7 | COc1nc(C)cc2c1C(=O)N[C@H](C(=O)NCCc1cc(C(F)(F)F)no1)CC(=O)N(C)[C@@H](CC(C)C)C(=O)N1CCCC[C@H]1C(=O)N[C@H](Cc1ccccc1)CO2 [Example 667, (7S,11S,17aS,20R)-20-benzyl-11-isobutyl-4-methoxy-2,10-dimethyl-5,9,12,18-tetraoxo-N-(2-(3-(trifluoromethyl)isoxazol-5-yl)ethyl)-5,6,7,8,9,10,11,12,15,16,17,17a,18,19,20,21-hexadecahydro-14H-dipyrido[2,1-f:3′,4′-p][1]oxa[4,7,10,14]tetraazacycloheptadecine-7-carboxamide] | 764 nM | 149%
8 | COc1nccc2c1C(=O)N[C@H](C(=O)NCCc1cc(C3CC3)no1)CC(=O)N(C)[C@@H](CC(C)C)C(=O)N1CCC3(CC3)C[C@@H]1C(=O)N[C@H](Cc1ccccc1)CO2 [Example 668, (7′S,11′S,17a′R,20′R)-20′-benzyl-N-(2-(3-cyclopropylisoxazol-5-yl)ethyl)-11′-isobutyl-4′-methoxy-10′-methyl-5′,9′,12′,18′-tetraoxo-5′,6′,7′,8′,9′,10′,11′,12′,14′,15′,17′,17a′,18′,19′,20′,21′-hexadecahydrospiro[cyclopropane-1,16′-dipyrido[2,1-f:3′,4′-p][1]oxa[4,7,10,14]tetraazacycloheptadecine]-7′-carboxamide] | 160 nM | 330%

More lines, now with the values ahead:

Row | EC50 | Emax | SMILES
9 | 150 nM | 318% | CC(C)C[C@H]1C(=O)N2CCCC[C@@H]2C(=O)N[C@H](Cc2ccccc2)COc2ccc3ncc(F)cc3c2C(=O)N[C@H](C(=O)NCCc2cc(C3CC3)no2)CC(=O)N1C [Example 655, (9S,13S,19aR,22R)-22-benzyl-N-(2-(3-cyclopropylisoxazol-5-yl)ethyl)-5-fluoro-13-isobutyl-12-methyl-7,11,14,20-tetraoxo-7,8,9,10,11,12,13,14,17,18,19,19a,20,21,22,23-hexadecahydro-16H-pyrido[2′,1′:6,7][1]oxa[4,7,10,14]tetraazacycloheptadecino[16,17-f]quinoline-9-carboxamide]
10 | 359 nM | 325% | [2H]C([2H])([2H])Oc1nc(C)cc2c1C(=O)N[C@H](C(=O)NCCc1cc(C3CC3)no1)CC(=O)N(C)[C@@H](CC(C)C)C(=O)N1CCCC[C@@H]1C(=O)N[C@H](Cc1ccccc1)CO2 [Example 659, (7S,11S,17aR,20R)-20-benzyl-N-(2-(3-cyclopropylisoxazol-5-yl)ethyl)-11-isobutyl-4-(methoxy-d3)-2,10-dimethyl-5,9,12,18-tetraoxo-5,6,7,8,9,10,11,12,15,16,17,17a,18,19,20,21-hexadecahydro-14H-dipyrido[2,1-f:3′,4′-p][1]oxa[4,7,10,14]tetraazacycloheptadecine-7-carboxamide]
11 | 91 nM | 358% | CC(C)C[C@H]1C(=O)N2CCCC[C@@H]2C(=O)N[C@H](Cc2ccccc2)COc2cnc3cccc(F)c3c2C(=O)N[C@H](C(=O)NCCc2cc(C3CC3)no2)CC(=O)N1C [Example 660, (9S,13S,19aR,22R)-22-benzyl-N-(2-(3-cyclopropylisoxazol-5-yl)ethyl)-6-fluoro-13-isobutyl-12-methyl-7,11,14,20-tetraoxo-7,8,9,10,11,12,13,14,17,18,19,19a,20,21,22,23-hexadecahydro-16H-pyrido[2′,1′:6,7][1]oxa[4,7,10,14]tetraazacycloheptadecino[17,16-c]quinoline-9-carboxamide]
12 | 801 nM | 210% | COc1nccc2c1C(=O)N[C@H](C(=O)NCCc1cc(C3CC3)no1)CC(=O)N(C)[C@@H](CC(C)C)C(=O)N1CCC(F)(F)C[C@@H]1C(=O)N[C@H](Cc1ccccc1)CO2 [Example 663, (7S,11S,17aR,20R)-20-benzyl-N-(2-(3-cyclopropylisoxazol-5-yl)ethyl)-16,16-difluoro-11-isobutyl-4-methoxy-10-methyl-5,9,12,18-tetraoxo-5,6,7,8,9,10,11,12,15,16,17,17a,18,19,20,21-hexadecahydro-14H-dipyrido[2,1-f:3′,4′-p][1]oxa[4,7,10,14]tetraazacycloheptadecine-7-carboxamide]
13 | 231 nM | 291% | [2H]C([2H])([2H])Oc1nc(C)cc2c1C(=O)N[C@H](C(=O)NCCc1cc(C3CC3)on1)CC(=O)N(C)[C@@H](CC(C)C)C(=O)N1CCCC[C@@H]1C(=O)N[C@H](Cc1ccccc1)CO2 [Example 664, (7S,11S,17aR,20R)-20-benzyl-N-(2-(5-cyclopropylisoxazol-3-yl)ethyl)-11-isobutyl-4-(methoxy-d3)-2,10-dimethyl-5,9,12,18-tetraoxo-5,6,7,8,9,10,11,12,15,16,17,17a,18,19,20,21-hexadecahydro-14H-dipyrido[2,1-f:3′,4′-p][1]oxa[4,7,10,14]tetraazacycloheptadecine-7-carboxamide]
14 | 353 nM | 167% | COc1nccc2c1C(=O)N[C@H](C(=O)NCCc1cc(C3CC3)no1)CC(=O)N(C)[C@@H](CC(C)C)C(=O)N1CC[C@H](c3ccccc3)C[C@H]1C(=O)N[C@H](Cc1ccccc1)CO2 [Example 670, (7S,11S,17aS,20R)-20-benzyl-N-(2-(3-cyclopropylisoxazol-5-yl)ethyl)-11-isobutyl-4-methoxy-10-methyl-5,9,12,18-tetraoxo-16-phenyl-5,6,7,8,9,10,11,12,15,16,17,17a,18,19,20,21-hexadecahydro-14H-dipyrido[2,1-f:3′,4′-p][1]oxa[4,7,10,14]tetraazacycloheptadecine-7-carboxamide]
15 | 103 nM | 312% | COc1nccc2c1C(=O)N[C@H](C(=O)NCCc1cc(C3CC3)no1)CC(=O)N(C)[C@@H](CC(C)C)C(=O)N1CC[C@@H](c3ccccc3)C[C@@H]1C(=O)N[C@H](Cc1ccccc1)CO2 [Example 672, (7S,11S,17aR,20R)-20-benzyl-N-(2-(3-cyclopropylisoxazol-5-yl)ethyl)-11-isobutyl-4-methoxy-10-methyl-5,9,12,18-tetraoxo-16-phenyl-5,6,7,8,9,10,11,12,15,16,17,17a,18,19,20,21-hexadecahydro-14H-dipyrido[2,1-f:3′,4′-p][1]oxa[4,7,10,14]tetraazacycloheptadecine-7-carboxamide]
